Results reported in the NIST ThermoML archive (doi:10.1016/j.jct.2016.09.013).
± gives the expanded uncertainty stated by the source.

Settings: Liquid; for viscosity: Concentric cylinders viscometry

## CCCCn1cc[n+](C)c1.COP(=O)([O-])OC [1-butyl-3-methyl-1H-imidazolium dimethylphosphate]
293.15 K, 101.33 kPa
  viscosity: 760.4 ± 29 mPa·s
293.15 K, 101.33 kPa, Vibrating tube method
  mass density: 1167.3 ± 1.5 kg/m3
303.15 K, 101.33 kPa
  viscosity: 369.3 ± 11 mPa·s
303.15 K, 101.33 kPa, Vibrating tube method
  mass density: 1160.2 ± 1.5 kg/m3
311.4 K, 10000 kPa, Bellows volumetry
  mass density: 1159.3 ± 1.8 kg/m3
311.4 K, 20000 kPa, Bellows volumetry
  mass density: 1163.7 ± 1.8 kg/m3
311.4 K, 30000 kPa, Bellows volumetry
  mass density: 1168.1 ± 1.8 kg/m3
311.4 K, 40000 kPa, Bellows volumetry
  mass density: 1172.2 ± 1.8 kg/m3
311.4 K, 50000 kPa, Bellows volumetry
  mass density: 1176.4 ± 1.8 kg/m3
311.4 K, 60000 kPa, Bellows volumetry
  mass density: 1180.3 ± 1.8 kg/m3
311.4 K, 70000 kPa, Bellows volumetry
  mass density: 1183.9 ± 1.8 kg/m3
311.4 K, 80000 kPa, Bellows volumetry
  mass density: 1187.7 ± 1.8 kg/m3
311.4 K, 90000 kPa, Bellows volumetry
  mass density: 1191.3 ± 1.8 kg/m3
311.4 K, 100000 kPa, Bellows volumetry
  mass density: 1194.7 ± 1.8 kg/m3
311.4 K, 110000 kPa, Bellows volumetry
  mass density: 1198.1 ± 1.8 kg/m3
311.4 K, 120000 kPa, Bellows volumetry
  mass density: 1201.4 ± 1.8 kg/m3
311.4 K, 130000 kPa, Bellows volumetry
  mass density: 1204.7 ± 1.9 kg/m3
311.4 K, 140000 kPa, Bellows volumetry
  mass density: 1207.7 ± 1.9 kg/m3
311.4 K, 150000 kPa, Bellows volumetry
  mass density: 1210.8 ± 1.9 kg/m3
311.4 K, 160000 kPa, Bellows volumetry
  mass density: 1213.7 ± 1.9 kg/m3
311.4 K, 170000 kPa, Bellows volumetry
  mass density: 1216.7 ± 1.9 kg/m3
311.4 K, 180000 kPa, Bellows volumetry
  mass density: 1219.6 ± 1.9 kg/m3
311.4 K, 190000 kPa, Bellows volumetry
  mass density: 1222.5 ± 1.9 kg/m3
311.4 K, 200000 kPa, Bellows volumetry
  mass density: 1225.3 ± 1.9 kg/m3
313.15 K, 101.33 kPa
  viscosity: 198.8 ± 4.2 mPa·s
313.15 K, 101.33 kPa, Vibrating tube method
  mass density: 1153.4 ± 1.5 kg/m3
323.15 K, 101.33 kPa
  viscosity: 116.4 ± 1.9 mPa·s
323.15 K, 101.33 kPa, Vibrating tube method
  mass density: 1146.8 ± 1.5 kg/m3
331.3 K, 10000 kPa, Bellows volumetry
  mass density: 1146.1 ± 1.8 kg/m3
331.3 K, 20000 kPa, Bellows volumetry
  mass density: 1150.8 ± 1.8 kg/m3
331.3 K, 30000 kPa, Bellows volumetry
  mass density: 1155.4 ± 1.8 kg/m3
331.3 K, 40000 kPa, Bellows volumetry
  mass density: 1159.8 ± 1.8 kg/m3
331.3 K, 50000 kPa, Bellows volumetry
  mass density: 1164.2 ± 1.8 kg/m3
331.3 K, 60000 kPa, Bellows volumetry
  mass density: 1168.3 ± 1.8 kg/m3
331.3 K, 70000 kPa, Bellows volumetry
  mass density: 1172.1 ± 1.8 kg/m3
331.3 K, 80000 kPa, Bellows volumetry
  mass density: 1176 ± 1.8 kg/m3
331.3 K, 90000 kPa, Bellows volumetry
  mass density: 1179.6 ± 1.8 kg/m3
331.3 K, 100000 kPa, Bellows volumetry
  mass density: 1183.1 ± 1.8 kg/m3
331.3 K, 110000 kPa, Bellows volumetry
  mass density: 1186.6 ± 1.8 kg/m3
331.3 K, 120000 kPa, Bellows volumetry
  mass density: 1190.1 ± 1.8 kg/m3
331.3 K, 130000 kPa, Bellows volumetry
  mass density: 1193.4 ± 1.8 kg/m3
331.3 K, 140000 kPa, Bellows volumetry
  mass density: 1196.6 ± 1.8 kg/m3
331.3 K, 150000 kPa, Bellows volumetry
  mass density: 1199.8 ± 1.8 kg/m3
331.3 K, 160000 kPa, Bellows volumetry
  mass density: 1202.9 ± 1.8 kg/m3
331.3 K, 170000 kPa, Bellows volumetry
  mass density: 1205.9 ± 1.9 kg/m3
331.3 K, 180000 kPa, Bellows volumetry
  mass density: 1208.9 ± 1.9 kg/m3
331.3 K, 190000 kPa, Bellows volumetry
  mass density: 1212.6 ± 1.9 kg/m3
331.3 K, 200000 kPa, Bellows volumetry
  mass density: 1214.8 ± 1.9 kg/m3
333.15 K, 101.33 kPa
  viscosity: 72.97 ± 0.98 mPa·s
333.15 K, 101.33 kPa, Vibrating tube method
  mass density: 1140.3 ± 1.4 kg/m3
343.15 K, 101.33 kPa
  viscosity: 48.45 ± 0.62 mPa·s
343.15 K, 101.33 kPa, Vibrating tube method
  mass density: 1133.7 ± 1.4 kg/m3
351.6 K, 10000 kPa, Bellows volumetry
  mass density: 1133.7 ± 1.8 kg/m3
351.6 K, 20000 kPa, Bellows volumetry
  mass density: 1138.4 ± 1.8 kg/m3
351.6 K, 30000 kPa, Bellows volumetry
  mass density: 1143.3 ± 1.8 kg/m3
351.6 K, 40000 kPa, Bellows volumetry
  mass density: 1147.9 ± 1.8 kg/m3
351.6 K, 50000 kPa, Bellows volumetry
  mass density: 1152.4 ± 1.8 kg/m3
351.6 K, 60000 kPa, Bellows volumetry
  mass density: 1156.7 ± 1.8 kg/m3
351.6 K, 70000 kPa, Bellows volumetry
  mass density: 1160.9 ± 1.8 kg/m3
351.6 K, 80000 kPa, Bellows volumetry
  mass density: 1164.9 ± 1.8 kg/m3
351.6 K, 90000 kPa, Bellows volumetry
  mass density: 1168.6 ± 1.8 kg/m3
351.6 K, 100000 kPa, Bellows volumetry
  mass density: 1172.3 ± 1.8 kg/m3
351.6 K, 110000 kPa, Bellows volumetry
  mass density: 1175.9 ± 1.8 kg/m3
351.6 K, 120000 kPa, Bellows volumetry
  mass density: 1179.7 ± 1.8 kg/m3
351.6 K, 130000 kPa, Bellows volumetry
  mass density: 1183.1 ± 1.8 kg/m3
351.6 K, 140000 kPa, Bellows volumetry
  mass density: 1186.4 ± 1.8 kg/m3
351.6 K, 150000 kPa, Bellows volumetry
  mass density: 1189.6 ± 1.8 kg/m3
351.6 K, 160000 kPa, Bellows volumetry
  mass density: 1192.8 ± 1.8 kg/m3
351.6 K, 170000 kPa, Bellows volumetry
  mass density: 1196.1 ± 1.8 kg/m3
351.6 K, 180000 kPa, Bellows volumetry
  mass density: 1199.1 ± 1.8 kg/m3
351.6 K, 190000 kPa, Bellows volumetry
  mass density: 1202.1 ± 1.8 kg/m3
351.6 K, 200000 kPa, Bellows volumetry
  mass density: 1205.1 ± 1.9 kg/m3
353.15 K, 101.33 kPa
  viscosity: 33.76 ± 0.43 mPa·s
353.15 K, 101.33 kPa, Vibrating tube method
  mass density: 1127.2 ± 1.4 kg/m3
363.15 K, 101.33 kPa
  viscosity: 24.48 ± 0.31 mPa·s
363.15 K, 101.33 kPa, Vibrating tube method
  mass density: 1120.7 ± 1.4 kg/m3
371.6 K, 10000 kPa, Bellows volumetry
  mass density: 1120.8 ± 1.8 kg/m3
371.6 K, 20000 kPa, Bellows volumetry
  mass density: 1126.1 ± 1.8 kg/m3
371.6 K, 30000 kPa, Bellows volumetry
  mass density: 1131.3 ± 1.8 kg/m3
371.6 K, 40000 kPa, Bellows volumetry
  mass density: 1136.2 ± 1.8 kg/m3
371.6 K, 50000 kPa, Bellows volumetry
  mass density: 1140.9 ± 1.8 kg/m3
371.6 K, 60000 kPa, Bellows volumetry
  mass density: 1145.4 ± 1.8 kg/m3
371.6 K, 70000 kPa, Bellows volumetry
  mass density: 1149.7 ± 1.8 kg/m3
371.6 K, 80000 kPa, Bellows volumetry
  mass density: 1153.9 ± 1.8 kg/m3
371.6 K, 90000 kPa, Bellows volumetry
  mass density: 1157.9 ± 1.8 kg/m3
371.6 K, 100000 kPa, Bellows volumetry
  mass density: 1161.8 ± 1.8 kg/m3
371.6 K, 110000 kPa, Bellows volumetry
  mass density: 1165.7 ± 1.8 kg/m3
371.6 K, 120000 kPa, Bellows volumetry
  mass density: 1169.4 ± 1.8 kg/m3
371.6 K, 130000 kPa, Bellows volumetry
  mass density: 1173.1 ± 1.8 kg/m3
371.6 K, 140000 kPa, Bellows volumetry
  mass density: 1176.4 ± 1.8 kg/m3
371.6 K, 150000 kPa, Bellows volumetry
  mass density: 1179.7 ± 1.8 kg/m3
371.6 K, 160000 kPa, Bellows volumetry
  mass density: 1183 ± 1.8 kg/m3
371.6 K, 170000 kPa, Bellows volumetry
  mass density: 1186.3 ± 1.8 kg/m3
371.6 K, 180000 kPa, Bellows volumetry
  mass density: 1189.4 ± 1.8 kg/m3
371.6 K, 190000 kPa, Bellows volumetry
  mass density: 1192.5 ± 1.8 kg/m3
371.6 K, 200000 kPa, Bellows volumetry
  mass density: 1195.6 ± 1.8 kg/m3
373.15 K, 101.33 kPa
  viscosity: 18.37 ± 0.24 mPa·s
373.15 K, 101.33 kPa, Vibrating tube method
  mass density: 1114.2 ± 1.4 kg/m3
